Data taken from PubChem BioAssay (NCI).
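These data come from cells grown in 96-well plates and exposed to compound for 48 hours at five concentrations. GI50: concentration for 50% inhibition of growth. Definition used: TGI = concentration required for complete inhibition of growth.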

What was measured:
Assay in all cases: NCI anticancer screen, dose series, 48 h
NCI-H23 lung = test system: NCI-H23 lung
NCI-H460 lung = test system: NCI-H460 lung
NCI-H522 lung = test system: NCI-H522 lung
NCI/ADR-RES ovarian = test system: NCI/ADR-RES ovarian
OVCAR-3 ovarian = test system: OVCAR-3 ovarian
OVCAR-4 ovarian = test system: OVCAR-4 ovarian
OVCAR-5 ovarian = test system: OVCAR-5 ovarian
OVCAR-8 ovarian = test system: OVCAR-8 ovarian
PC-3 prostate = test system: PC-3 prostate
RPMI-8226 leukemia = test system: RPMI-8226 leukemia
RXF 393 renal = test system: RXF 393 renal
SF-268 CNS = test system: SF-268 CNS
SF-295 CNS = test system: SF-295 CNS
SF-539 CNS = test system: SF-539 CNS
SK-MEL-2 melanoma = test system: SK-MEL-2 melanoma
SK-MEL-28 melanoma = test system: SK-MEL-28 melanoma
SK-MEL-5 melanoma = test system: SK-MEL-5 melanoma
SK-OV-3 ovarian = test system: SK-OV-3 ovarian
SN12C renal = test system: SN12C renal
SNB-19 CNS = test system: SNB-19 CNS
SNB-75 CNS = test system: SNB-75 CNS
SR leukemia = test system: SR leukemia
SW-620 colon = test system: SW-620 colon
T-47D breast = test system: T-47D breast
TK-10 renal = test system: TK-10 renal
U251 CNS = test system: U251 CNS
UACC-257 melanoma = test system: UACC-257 melanoma
UACC-62 melanoma = test system: UACC-62 melanoma
UO-31 renal = test system: UO-31 renal

## COC(=O)c1oc2c(C(=O)/C=C/c3ccc(OC)cc3)c(OCCN3CCOCC3)ccc2c1C
NCI-H23 lung
  GI50: 1910 nM
  TGI: 5460 nM
NCI-H460 lung
  GI50: 1910 nM
  TGI: 4750 nM
NCI-H522 lung
  GI50: 1610 nM
  TGI: 3540 nM
NCI/ADR-RES ovarian
  GI50: 2480 nM
  TGI: > 24000 nM
OVCAR-3 ovarian
  GI50: 1890 nM
  TGI: 5690 nM
OVCAR-4 ovarian
  GI50: 2480 nM
  TGI: > 44200 nM
OVCAR-5 ovarian
  GI50: 2380 nM
  TGI: 6680 nM
OVCAR-8 ovarian
  GI50: 1800 nM
  TGI: 4700 nM
PC-3 prostate
  GI50: 1840 nM
  TGI: 6880 nM
RPMI-8226 leukemia
  GI50: 1570 nM
  TGI: 4200 nM
RXF 393 renal
  GI50: 48.7 nM
  TGI: 493 nM
SF-268 CNS
  GI50: 2050 nM
  TGI: 5760 nM
SF-295 CNS
  GI50: 1850 nM
  TGI: 5200 nM
SF-539 CNS
  GI50: 1640 nM
  TGI: 4100 nM
SK-MEL-2 melanoma
  GI50: 1320 nM
  TGI: 3150 nM
SK-MEL-28 melanoma
  GI50: 2330 nM
  TGI: 5190 nM
SK-MEL-5 melanoma
  GI50: 1690 nM
  TGI: 3170 nM
SK-OV-3 ovarian
  GI50: 2920 nM
  TGI: 8610 nM
SN12C renal
  GI50: 1780 nM
  TGI: 5910 nM
SNB-19 CNS
  GI50: 1650 nM
  TGI: 4150 nM
SNB-75 CNS
  GI50: 1830 nM
  TGI: 6770 nM
SR leukemia
  GI50: 287 nM
  TGI: 1290 nM
SW-620 colon
  GI50: 1880 nM
  TGI: 4430 nM
T-47D breast
  GI50: 1510 nM
  TGI: 6830 nM
TK-10 renal
  GI50: 3310 nM
  TGI: 11900 nM
U251 CNS
  GI50: 1400 nM
  TGI: 2740 nM
UACC-257 melanoma
  GI50: 1990 nM
  TGI: 4250 nM
UACC-62 melanoma
  GI50: 1550 nM
  TGI: 3190 nM
UO-31 renal
  GI50: 1890 nM
  TGI: 5250 nM
